The values below come from ChEMBL document CHEMBL1201862, “PubChem BioAssay data set” (2004).

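Growth conditions: 96-well plates. Treatment: test compound, 48 hours, 5 concentrations. Analysis: linear interpolation between bracketing concentrations; unreached endpoints set to highest concentration. Abbreviation: GI50, concentration required for 50% inhibition of growth.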 The source made the active and inactive calls. Rule as the data show it: active = GI50 up to about 1.1 µM and inactive = higher. Some results are limits rather than exact numbers.

Among the test systems are OVCAR-4; MOLT-4; SW-620; Hs-578T; HCC 2998; CAKI-1; NCI-H522; HOP-62; MCF7; SF-295; OVCAR-3; HT-29; ACHN; U-251; OVCAR-5; SF-539; SK-OV-3; A498; Malme-3M; SR.
Common to all, as to assay: growth of human tumour cells (NCI), 48 h

In the case of `Cc1cc(Br)cc(C)c1NC(=O)C(=O)C1C(=O)C(CC2C(=O)c3ccccc3C2=O)C(=O)CC1(C)C` (centres undefined), the GI50 was 39.5 µM (inactive) in the assay with OVCAR-4; 18.1 µM (inactive) in the assay on MOLT-4; > 100 µM (inactive) with SW-620; > 100 µM (inactive) in the assay on Hs-578T; > 100 µM (inactive) in the assay with HCC 2998; > 100 µM (inactive) with CAKI-1. Also, the GI50 is 44.5 µM (inactive) in the assay with NCI-H522; > 100 µM (inactive) with HOP-62; 18.6 µM (inactive) with MCF7; > 100 µM (inactive) in the assay on SF-295; > 100 µM (inactive) in the assay on OVCAR-3; > 100 µM (inactive) with HT-29. For the same compound, the GI50 in the assay on ACHN, in the assay on U-251, in the assay on OVCAR-5, in the assay on SF-539 and in the assay on SK-OV-3 was > 100 µM (inactive) each time.
Consider `CC1=CC(C)(C)NN1C1=NS(=O)(=O)c2ccccc2N1C`, for which the GI50 in the assay with OVCAR-4 was 44.3 µM (inactive); in the assay on MOLT-4, 47.9 µM (inactive); in the assay with SW-620, > 100 µM (inactive); in the assay on Hs-578T, > 100 µM (inactive); in the assay on HCC 2998, > 100 µM (inactive); with CAKI-1 it was > 100 µM (inactive). Besides, the GI50 in the assay on NCI-H522, in the assay with HOP-62, with MCF7, with A498, in the assay on SF-295 and with OVCAR-3 was > 100 µM (inactive) in each case. The GI50 with HT-29, with ACHN, with U-251, with OVCAR-5, in the assay with SF-539 and in the assay on SK-OV-3 was > 100 µM (inactive) each time.
As to `Cc1ccc(/C=N/Nc2ncccn2)s1`, the GI50 with OVCAR-4, with Malme-3M, in the assay with SW-620, in the assay with Hs-578T, in the assay with HCC 2998 and in the assay on CAKI-1 was > 100 µM (inactive) each time. The GI50 in the assay with NCI-H522, with HOP-62, in the assay with MCF7, with SF-295, with OVCAR-3 and with HT-29 was > 100 µM (inactive) throughout. Further, the GI50 in the assay on ACHN, in the assay on U-251, with OVCAR-5, in the assay on SF-539 and in the assay on SK-OV-3 was > 100 µM (inactive) throughout.
As to `CCOP(C)(=O)C(Nc1ccc(F)cc1)c1ccc(F)cc1` (centres undefined), the GI50 in the assay on OVCAR-4, with MOLT-4, in the assay with Malme-3M, in the assay on SW-620, with Hs-578T and with SR was > 100 µM (inactive) each time. Besides, the GI50 with HCC 2998, in the assay with CAKI-1, in the assay on NCI-H522, in the assay on HOP-62, with A498 and with SF-295 was > 100 µM (inactive) throughout. The GI50 with OVCAR-3, in the assay on HT-29, in the assay with ACHN, in the assay with U-251, in the assay on OVCAR-5 and in the assay with SF-539 was > 100 µM (inactive) throughout. In addition, the GI50 with SK-OV-3 is > 100 µM (inactive).
As to `C/C(=C\c1ccccn1)c1ccccn1`, the GI50 in the assay with OVCAR-4, with MOLT-4, with Malme-3M, with Hs-578T, in the assay with HCC 2998 and in the assay on CAKI-1 was > 100 µM (inactive) throughout. For the same compound, the GI50 with NCI-H522, in the assay on HOP-62, with MCF7, with A498, in the assay with SF-295 and in the assay with OVCAR-3 was > 100 µM (inactive) throughout. Besides, the GI50 in the assay on HT-29, in the assay with ACHN, in the assay on U-251, in the assay with OVCAR-5 and in the assay on SK-OV-3 was > 100 µM (inactive) throughout.
With `CN1CCN(C(=S)N(C(=O)c2ccco2)C2CCCCC2)CC1`, the GI50 is > 100 µM (inactive) with OVCAR-4; > 10 µM (inactive) in the assay with MOLT-4; > 100 µM (inactive) with Malme-3M; > 100 µM (inactive) in the assay with SW-620; > 100 µM (inactive) in the assay with Hs-578T; > 100 µM (inactive) in the assay with SR. The GI50 with HCC 2998, in the assay with NCI-H522, in the assay with MCF7, in the assay with SF-295, in the assay with OVCAR-3 and in the assay on HT-29 was > 100 µM (inactive) in each case. The GI50 in the assay with ACHN, in the assay with U-251 and in the assay on OVCAR-5 was > 100 µM (inactive) throughout.
For `Cc1csc2nc(-c3cccc([N+](=O)[O-])c3)c(/C=N/N=C(N)N)n12`, the GI50 with OVCAR-4 was 1.78 µM (inactive); in the assay with Malme-3M, 1.72 µM (inactive); in the assay on SW-620, 1.71 µM (inactive); with Hs-578T, 2.18 µM (inactive); with HCC 2998 it was < 0.01 µM (active); in the assay with CAKI-1 it was 2.73 µM (inactive). The GI50 in the assay with NCI-H522 is 1.83 µM (inactive); in the assay on HOP-62, 1.71 µM (inactive); with MCF7 it was 1.82 µM (inactive); with A498, 0.933 µM (active); in the assay with SF-295 it was 1.69 µM (inactive); in the assay with OVCAR-3 it was 1.62 µM (inactive). For the same compound, the GI50 in the assay with HT-29 is 1.81 µM (inactive); in the assay on ACHN, 1.8 µM (inactive); in the assay with U-251, 1.67 µM (inactive); in the assay on OVCAR-5, 1.63 µM (inactive); in the assay on SF-539 it was 2.29 µM (inactive); with SK-OV-3 it was 1.82 µM (inactive).
`CN1c2ccccc2S(=O)(=O)n2c(COc3ccccc3)nnc21`: the GI50 with OVCAR-4, with MOLT-4, in the assay with SW-620, in the assay with Hs-578T, in the assay on HCC 2998 and in the assay on CAKI-1 was > 100 µM (inactive) in each case. The GI50 in the assay with NCI-H522 was 56.8 µM (inactive); with HOP-62, 35.4 µM (inactive); in the assay on MCF7, > 100 µM (inactive); in the assay on A498 it was 57.8 µM (inactive); in the assay on SF-295, 45.7 µM (inactive); in the assay on OVCAR-3, > 100 µM (inactive). For the same compound, the GI50 was > 100 µM (inactive) with HT-29; > 100 µM (inactive) with ACHN; > 100 µM (inactive) in the assay with U-251; > 100 µM (inactive) with OVCAR-5; 62.8 µM (inactive) with SF-539; > 100 µM (inactive) in the assay on SK-OV-3.
On to `COC1O[C@H]2[C@H]3[C@@H]1[C@@H](OS(=O)(=O)c1ccc(C)cc1)C(=O)N3C[C@H]2O` (some centres undefined), for which the GI50 with OVCAR-4 was > 100 µM (inactive); in the assay with MOLT-4, 48.5 µM (inactive); in the assay on Malme-3M, > 100 µM (inactive); in the assay with SW-620 it was > 100 µM (inactive); in the assay with SR, > 100 µM (inactive); with HCC 2998, > 100 µM (inactive). Also, the GI50 in the assay on CAKI-1, in the assay on HOP-62, in the assay with MCF7, in the assay with A498, in the assay on SF-295 and in the assay on OVCAR-3 was > 100 µM (inactive) throughout. Besides, the GI50 in the assay on HT-29, in the assay on ACHN, with U-251, with OVCAR-5, in the assay with SF-539 and with SK-OV-3 was > 100 µM (inactive) in each case.
Regarding `c1ccc2cc3c(cc2c1)nc1ccccn13`, the GI50 was > 100 µM (inactive) in the assay on MOLT-4; > 100 µM (inactive) with Malme-3M; > 100 µM (inactive) in the assay on SW-620; 21 µM (inactive) in the assay with Hs-578T; > 100 µM (inactive) with SR; > 100 µM (inactive) in the assay with HCC 2998. In addition, the GI50 with HOP-62 was > 100 µM (inactive); with MCF7, 28.2 µM (inactive); in the assay with SF-295, > 100 µM (inactive); in the assay on OVCAR-3, > 100 µM (inactive); in the assay with ACHN, > 100 µM (inactive); with U-251 it was > 100 µM (inactive). The GI50 with OVCAR-5 is > 100 µM (inactive); in the assay with SF-539, > 100 µM (inactive); in the assay with SK-OV-3, 77.3 µM (inactive).
Consider `COC(=O)[C@]1(c2cc3ccccc3[nH]2)CC2CN(CC(=O)N(C)OC)C1CC2(OC)OC` (some centres undefined), for which the GI50 with OVCAR-4 was 57.1 µM (inactive); in the assay with Malme-3M, 24.3 µM (inactive); with SW-620 it was 36.4 µM (inactive); in the assay with HCC 2998 it was > 100 µM (inactive); in the assay on CAKI-1, 20.7 µM (inactive); with NCI-H522, 15.9 µM (inactive). Besides, the GI50 in the assay on HOP-62 is 69.3 µM (inactive); with MCF7 it was 32.8 µM (inactive); with A498 it was 39.1 µM (inactive); in the assay on SF-295, > 100 µM (inactive); in the assay with OVCAR-3, 50.6 µM (inactive); in the assay on HT-29, 35.2 µM (inactive). Further, the GI50 with ACHN is 35.1 µM (inactive); in the assay with U-251 it was 16.1 µM (inactive); with OVCAR-5, 52.2 µM (inactive); in the assay on SF-539, 44.4 µM (inactive); with SK-OV-3, > 100 µM (inactive).
